Assay results taken from patent US7652007B2, “Nitrogen-substituted hexahydropyrazino[1,2-A]pyrimidine-4,7-dione derivatives, processes for their preparation and their use as medicaments” (Sanofi-Aventis Deutschland GmbH, priority 2003, dated 2010).

System: female NMRI mice
Assay: Anorectic effect: cumulative condensed milk consumption of treated compared with control animals
Assay type: in vivo
Details: oral dose 50 mg/kg by gavage, female NMRI mice after withdrawal of food for 24 hours; for Reduction in the cumulative milk consumption as % of the control: compared with vehicle-treated control animals; for cumulative milk consumption of the treated animals: condensed milk offered 30 minutes after administration, consumption determined for 7 hours
Protocol: The anorectic effect was tested on female NMRI mice. After withdrawal of food for 24 hours, the test product was administered by gavage. The animals were housed singly with free access to drinking water and were offered condensed milk 30 minutes after administration of the product. The condensed milk consumption was determined every half hour for 7 hours, and the general wellbeing of the animals was observed. The measured milk consumption was compared with the vehicle-treated control animals.

CC(C)N1CC2N(C(=O)C(N(C)C)CN2S(=O)(=O)c2ccc(Cl)cc2Cl)C(Cc2ccc(Cl)cc2)C1=O (stereo not shown) [Example 5, 6-(4-Chlorobenzyl)-1-(2,4-dichlorobenzenesulfonyl)-3-dimethylamino-8-isopropylhexahydropyrazino[1,2-a]pyrimidine-4,7-dione]
Reduction in the cumulative milk consumption as % of the control: 31 % of the control
cumulative milk consumption of the treated animals: 5/2.4 ml

CC(C)N1CC2N(C(=O)C(NS(C)(=O)=O)CN2S(=O)(=O)c2ccc(Cl)cc2Cl)C(Cc2ccc(Cl)cc2)C1=O (stereo not shown) [Example 9, N-[6-(4-Chlorobenzyl)-1-(2,4-dichlorobenzenesulfonyl)-8-isopropyl-4,7-dioxooctahydropyrazino[1,2-a]pyrimidin-3-yl]methanesulfonamide]
Reduction in the cumulative milk consumption as % of the control: 47 % of the control
cumulative milk consumption of the treated animals: 5/2.06 ml
